Laboratory results as given in patent US20240400577A1, “MODULATORS OF PROTEIN KINASES” (VIBLIOME THERAPEUTICS, LLC, priority 2021, published 2024).

Legend:
Assay in all cases: Kinase panel enzymatic inhibition assay (Nanosyn)
Type in all cases: biochemical
Details in all cases: compound 5 μM; ATP at Km; 30-minute pre-incubation
[1] = biological target: T1, PDGFRb (Homo sapiens, UniProt P09619)
T1 construct: Nanosyn (contract laboratory that ran the panel)
Summary of the method: (§1)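 Inhibition is expressed as percent at 5 μM or as IC50, with ATP set at the Km of each kinase and a 30-minute compound pre-incubation. Detection used an accepted enzymatic format such as Caliper mobility shift.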

[2] = biological target: T2, ARAF (Homo sapiens, UniProt P10398)
T2 construct: purchased Nanosyn (contract screening)
T2 sequence (P10398 1-606): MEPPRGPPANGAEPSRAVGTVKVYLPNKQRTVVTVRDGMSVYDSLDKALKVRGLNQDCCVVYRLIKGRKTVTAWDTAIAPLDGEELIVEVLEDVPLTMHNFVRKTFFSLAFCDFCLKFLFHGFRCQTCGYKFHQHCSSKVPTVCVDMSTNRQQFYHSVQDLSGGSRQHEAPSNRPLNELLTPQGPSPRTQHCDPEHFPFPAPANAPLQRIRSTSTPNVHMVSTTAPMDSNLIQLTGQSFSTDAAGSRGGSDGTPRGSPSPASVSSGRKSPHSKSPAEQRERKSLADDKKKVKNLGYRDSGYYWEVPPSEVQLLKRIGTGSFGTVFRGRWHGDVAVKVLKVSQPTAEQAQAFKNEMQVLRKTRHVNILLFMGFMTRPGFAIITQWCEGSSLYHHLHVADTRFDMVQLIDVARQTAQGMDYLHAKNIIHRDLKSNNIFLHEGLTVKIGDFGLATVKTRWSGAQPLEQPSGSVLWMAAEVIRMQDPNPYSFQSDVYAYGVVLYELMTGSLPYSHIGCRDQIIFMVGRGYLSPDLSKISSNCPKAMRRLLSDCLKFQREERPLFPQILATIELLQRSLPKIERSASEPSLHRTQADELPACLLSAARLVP
Summary of the method: as §1

[3] = biological target: T3, LYNb (Homo sapiens, UniProt P07948)
T3 construct: purchased Nanosyn (contract screening)
Summary of the method: as §1

[4] = biological target: T4, RET (Homo sapiens, UniProt P07949)
T4 construct: Nanosyn (contract laboratory that ran the panel)
Summary of the method: as §1

[5] = biological target: T5, FYN (Homo sapiens, UniProt P06241)
T5 construct: purchased Nanosyn (contract screening)
Summary of the method: as §1

[6] = biological target: T6, PDGFRa (Homo sapiens, UniProt P16234)
T6 construct: Nanosyn (contract laboratory that ran the panel)
Summary of the method: as §1

[7] = biological target: T7, ERBB4 (Homo sapiens, UniProt Q15303)
T7 construct: purchased Nanosyn (contract screening)
Summary of the method: as §1

[8] = biological target: T8, BLK (Homo sapiens, UniProt P51451)
T8 construct: purchased Nanosyn (contract screening)
Summary of the method: as §1

[9] = biological target: T9, CRAF (Homo sapiens, UniProt P04049)
T9 construct: purchased Nanosyn (contract screening)
Summary of the method: as §1

[10] = biological target: T10, Abl2 (Homo sapiens, UniProt P42684)
T10 construct: purchased Nanosyn (contract screening)
Summary of the method: as §1

[11] = biological target: T11, HGK (Homo sapiens, UniProt O95819)
T11 construct: purchased Nanosyn (contract screening)
Summary of the method: as §1

[12] = biological target: T12, TAOK2 (Homo sapiens, UniProt Q9UL54)
T12 construct: Nanosyn (contract laboratory that ran the panel)
T12 sequence (Q9UL54 1-1235): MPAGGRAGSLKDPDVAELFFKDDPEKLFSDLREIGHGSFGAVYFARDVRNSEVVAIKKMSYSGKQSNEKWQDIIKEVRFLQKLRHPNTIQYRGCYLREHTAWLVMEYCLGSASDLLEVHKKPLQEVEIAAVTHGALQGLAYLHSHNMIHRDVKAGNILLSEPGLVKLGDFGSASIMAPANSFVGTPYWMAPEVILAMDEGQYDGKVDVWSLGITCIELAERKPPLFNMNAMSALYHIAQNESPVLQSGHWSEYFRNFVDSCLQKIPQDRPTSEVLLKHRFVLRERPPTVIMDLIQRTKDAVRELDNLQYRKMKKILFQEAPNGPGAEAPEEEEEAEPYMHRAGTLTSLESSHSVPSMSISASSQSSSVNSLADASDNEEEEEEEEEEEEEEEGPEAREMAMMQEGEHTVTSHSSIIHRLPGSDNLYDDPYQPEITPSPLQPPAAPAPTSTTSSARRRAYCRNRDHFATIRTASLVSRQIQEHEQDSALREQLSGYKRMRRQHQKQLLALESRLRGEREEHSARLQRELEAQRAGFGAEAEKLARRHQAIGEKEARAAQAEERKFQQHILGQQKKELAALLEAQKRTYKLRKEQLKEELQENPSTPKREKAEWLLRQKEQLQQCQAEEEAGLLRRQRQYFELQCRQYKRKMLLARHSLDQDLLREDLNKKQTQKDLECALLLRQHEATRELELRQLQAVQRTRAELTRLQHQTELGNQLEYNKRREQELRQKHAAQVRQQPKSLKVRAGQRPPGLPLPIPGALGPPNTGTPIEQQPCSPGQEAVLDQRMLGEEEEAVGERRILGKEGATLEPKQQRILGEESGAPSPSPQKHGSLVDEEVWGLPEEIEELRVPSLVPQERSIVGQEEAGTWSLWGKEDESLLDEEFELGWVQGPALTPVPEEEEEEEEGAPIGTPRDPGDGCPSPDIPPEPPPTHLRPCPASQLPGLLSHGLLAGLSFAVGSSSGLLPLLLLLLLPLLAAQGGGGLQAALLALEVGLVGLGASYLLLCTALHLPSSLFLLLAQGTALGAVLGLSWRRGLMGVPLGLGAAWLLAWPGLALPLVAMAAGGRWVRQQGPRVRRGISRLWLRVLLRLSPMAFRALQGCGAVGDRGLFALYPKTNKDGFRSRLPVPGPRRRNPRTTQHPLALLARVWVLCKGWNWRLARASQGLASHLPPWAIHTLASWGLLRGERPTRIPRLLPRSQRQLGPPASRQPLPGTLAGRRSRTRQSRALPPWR
Summary of the method: as §1

[13] = system: EPH
Summary of the method: as §1

T6 sequence (P16234 24-1089): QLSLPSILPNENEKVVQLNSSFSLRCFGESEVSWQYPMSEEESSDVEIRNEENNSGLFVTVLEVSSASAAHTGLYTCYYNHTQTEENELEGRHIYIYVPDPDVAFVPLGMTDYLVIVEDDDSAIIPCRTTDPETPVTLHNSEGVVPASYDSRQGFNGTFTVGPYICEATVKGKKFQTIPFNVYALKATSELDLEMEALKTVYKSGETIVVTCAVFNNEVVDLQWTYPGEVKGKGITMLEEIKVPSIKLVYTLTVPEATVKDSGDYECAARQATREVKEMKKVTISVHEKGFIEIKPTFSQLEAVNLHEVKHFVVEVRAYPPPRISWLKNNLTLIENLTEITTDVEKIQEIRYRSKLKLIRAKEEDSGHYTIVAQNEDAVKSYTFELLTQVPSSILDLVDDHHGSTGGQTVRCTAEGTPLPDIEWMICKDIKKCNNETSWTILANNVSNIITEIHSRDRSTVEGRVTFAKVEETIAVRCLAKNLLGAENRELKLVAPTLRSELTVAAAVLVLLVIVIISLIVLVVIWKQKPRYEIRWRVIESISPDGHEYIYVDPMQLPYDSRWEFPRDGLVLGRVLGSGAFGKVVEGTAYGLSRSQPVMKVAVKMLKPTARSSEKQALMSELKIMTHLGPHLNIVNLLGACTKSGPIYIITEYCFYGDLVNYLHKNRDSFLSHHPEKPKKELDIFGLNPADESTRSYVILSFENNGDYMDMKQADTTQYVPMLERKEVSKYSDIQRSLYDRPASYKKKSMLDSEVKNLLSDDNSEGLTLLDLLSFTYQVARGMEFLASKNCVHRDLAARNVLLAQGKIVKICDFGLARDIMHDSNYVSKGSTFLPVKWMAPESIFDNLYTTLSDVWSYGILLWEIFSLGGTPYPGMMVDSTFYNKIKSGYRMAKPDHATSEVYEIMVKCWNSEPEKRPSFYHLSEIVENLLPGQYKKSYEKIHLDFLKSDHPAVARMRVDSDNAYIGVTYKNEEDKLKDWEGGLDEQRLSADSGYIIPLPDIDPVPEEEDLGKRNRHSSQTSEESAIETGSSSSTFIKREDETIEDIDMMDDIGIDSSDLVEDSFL
T11 sequence (O95819 whole entry): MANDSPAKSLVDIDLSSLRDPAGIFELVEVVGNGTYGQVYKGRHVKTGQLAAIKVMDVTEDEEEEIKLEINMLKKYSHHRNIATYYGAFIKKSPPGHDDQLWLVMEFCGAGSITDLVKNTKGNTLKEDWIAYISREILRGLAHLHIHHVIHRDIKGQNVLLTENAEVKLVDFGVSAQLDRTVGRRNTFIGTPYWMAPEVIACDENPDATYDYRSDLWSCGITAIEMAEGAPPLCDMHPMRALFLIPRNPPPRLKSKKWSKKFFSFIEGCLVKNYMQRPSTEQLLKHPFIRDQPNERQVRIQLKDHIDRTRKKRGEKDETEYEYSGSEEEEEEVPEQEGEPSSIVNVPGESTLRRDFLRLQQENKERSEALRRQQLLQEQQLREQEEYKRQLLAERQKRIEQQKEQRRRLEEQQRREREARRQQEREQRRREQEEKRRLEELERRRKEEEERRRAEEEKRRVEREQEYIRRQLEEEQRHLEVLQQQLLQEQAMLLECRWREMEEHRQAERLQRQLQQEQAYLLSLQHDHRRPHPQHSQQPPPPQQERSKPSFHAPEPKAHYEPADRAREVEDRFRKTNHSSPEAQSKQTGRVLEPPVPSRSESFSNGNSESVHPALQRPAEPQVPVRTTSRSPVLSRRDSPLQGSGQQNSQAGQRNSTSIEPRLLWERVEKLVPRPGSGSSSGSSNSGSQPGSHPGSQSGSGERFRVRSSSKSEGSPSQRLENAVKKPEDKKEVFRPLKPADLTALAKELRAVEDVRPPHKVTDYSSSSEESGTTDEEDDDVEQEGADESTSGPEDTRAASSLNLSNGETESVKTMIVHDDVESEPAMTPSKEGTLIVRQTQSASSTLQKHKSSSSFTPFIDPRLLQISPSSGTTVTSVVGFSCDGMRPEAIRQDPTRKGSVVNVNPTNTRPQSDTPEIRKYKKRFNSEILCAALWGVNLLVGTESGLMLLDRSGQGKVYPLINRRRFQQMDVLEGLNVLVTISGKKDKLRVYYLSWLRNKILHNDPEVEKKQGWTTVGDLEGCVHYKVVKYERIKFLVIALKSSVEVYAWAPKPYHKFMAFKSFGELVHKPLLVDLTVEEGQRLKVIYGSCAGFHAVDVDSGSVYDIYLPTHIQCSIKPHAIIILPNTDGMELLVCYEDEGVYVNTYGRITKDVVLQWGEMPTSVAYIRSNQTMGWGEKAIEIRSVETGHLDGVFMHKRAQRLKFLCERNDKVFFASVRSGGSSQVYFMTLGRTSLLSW
T9 sequence (P04049 whole entry): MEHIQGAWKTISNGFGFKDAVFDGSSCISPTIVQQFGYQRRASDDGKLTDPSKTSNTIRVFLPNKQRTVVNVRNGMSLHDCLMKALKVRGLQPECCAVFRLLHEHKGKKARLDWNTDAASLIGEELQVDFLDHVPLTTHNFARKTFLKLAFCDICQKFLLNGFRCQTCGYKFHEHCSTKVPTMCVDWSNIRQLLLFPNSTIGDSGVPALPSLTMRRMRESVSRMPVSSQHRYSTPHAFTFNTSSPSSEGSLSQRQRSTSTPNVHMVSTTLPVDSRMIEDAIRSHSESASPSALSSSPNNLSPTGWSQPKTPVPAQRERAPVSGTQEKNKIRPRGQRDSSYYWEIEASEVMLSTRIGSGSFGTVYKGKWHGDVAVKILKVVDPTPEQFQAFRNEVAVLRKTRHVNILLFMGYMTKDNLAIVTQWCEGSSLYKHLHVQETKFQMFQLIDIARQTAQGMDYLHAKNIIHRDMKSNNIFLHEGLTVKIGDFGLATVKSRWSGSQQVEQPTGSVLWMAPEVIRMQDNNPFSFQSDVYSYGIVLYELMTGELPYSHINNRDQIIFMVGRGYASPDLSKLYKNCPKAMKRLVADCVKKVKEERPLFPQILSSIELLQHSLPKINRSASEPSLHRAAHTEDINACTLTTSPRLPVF
T1 sequence (P09619 33-1106): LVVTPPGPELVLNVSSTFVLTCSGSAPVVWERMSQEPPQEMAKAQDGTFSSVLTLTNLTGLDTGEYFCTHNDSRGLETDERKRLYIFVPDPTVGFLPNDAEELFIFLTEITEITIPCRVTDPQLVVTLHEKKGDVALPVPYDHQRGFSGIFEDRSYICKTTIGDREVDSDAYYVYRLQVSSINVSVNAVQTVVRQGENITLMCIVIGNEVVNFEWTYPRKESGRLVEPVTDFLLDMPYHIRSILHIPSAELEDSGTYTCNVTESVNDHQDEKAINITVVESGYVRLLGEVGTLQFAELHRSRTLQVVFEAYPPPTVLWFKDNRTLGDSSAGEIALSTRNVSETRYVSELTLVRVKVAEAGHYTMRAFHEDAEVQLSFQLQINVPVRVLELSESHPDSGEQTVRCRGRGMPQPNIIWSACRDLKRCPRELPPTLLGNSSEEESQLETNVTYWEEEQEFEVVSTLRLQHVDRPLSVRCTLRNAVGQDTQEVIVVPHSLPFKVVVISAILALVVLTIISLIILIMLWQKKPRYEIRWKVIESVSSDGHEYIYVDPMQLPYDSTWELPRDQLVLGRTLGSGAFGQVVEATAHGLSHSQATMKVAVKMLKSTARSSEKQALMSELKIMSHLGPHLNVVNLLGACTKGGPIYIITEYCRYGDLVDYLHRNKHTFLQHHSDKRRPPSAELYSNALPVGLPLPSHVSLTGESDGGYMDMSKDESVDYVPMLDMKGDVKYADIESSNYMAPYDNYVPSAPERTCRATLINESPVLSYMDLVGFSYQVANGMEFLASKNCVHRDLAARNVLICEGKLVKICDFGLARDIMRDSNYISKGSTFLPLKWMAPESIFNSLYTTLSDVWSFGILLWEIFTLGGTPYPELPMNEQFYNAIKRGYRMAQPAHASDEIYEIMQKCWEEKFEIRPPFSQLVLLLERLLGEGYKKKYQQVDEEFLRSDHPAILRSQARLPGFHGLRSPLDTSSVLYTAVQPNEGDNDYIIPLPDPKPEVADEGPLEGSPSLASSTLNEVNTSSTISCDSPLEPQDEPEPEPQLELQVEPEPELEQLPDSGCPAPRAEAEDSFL
T3 sequence (P07948 1-491 isoform P07948-2): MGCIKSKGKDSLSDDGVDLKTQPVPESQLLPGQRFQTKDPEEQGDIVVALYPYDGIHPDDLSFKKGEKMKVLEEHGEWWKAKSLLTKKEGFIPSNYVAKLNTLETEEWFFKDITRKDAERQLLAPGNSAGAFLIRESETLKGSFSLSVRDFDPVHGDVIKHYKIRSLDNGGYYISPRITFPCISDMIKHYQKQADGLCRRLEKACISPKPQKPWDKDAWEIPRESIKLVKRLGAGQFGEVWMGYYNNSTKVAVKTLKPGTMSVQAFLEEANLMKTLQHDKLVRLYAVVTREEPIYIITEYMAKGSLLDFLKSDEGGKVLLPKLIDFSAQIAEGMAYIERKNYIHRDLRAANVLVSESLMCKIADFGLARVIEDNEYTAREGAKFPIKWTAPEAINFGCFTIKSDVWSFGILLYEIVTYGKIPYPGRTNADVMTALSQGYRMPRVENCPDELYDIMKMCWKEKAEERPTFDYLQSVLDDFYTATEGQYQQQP
T5 sequence (P06241 whole entry): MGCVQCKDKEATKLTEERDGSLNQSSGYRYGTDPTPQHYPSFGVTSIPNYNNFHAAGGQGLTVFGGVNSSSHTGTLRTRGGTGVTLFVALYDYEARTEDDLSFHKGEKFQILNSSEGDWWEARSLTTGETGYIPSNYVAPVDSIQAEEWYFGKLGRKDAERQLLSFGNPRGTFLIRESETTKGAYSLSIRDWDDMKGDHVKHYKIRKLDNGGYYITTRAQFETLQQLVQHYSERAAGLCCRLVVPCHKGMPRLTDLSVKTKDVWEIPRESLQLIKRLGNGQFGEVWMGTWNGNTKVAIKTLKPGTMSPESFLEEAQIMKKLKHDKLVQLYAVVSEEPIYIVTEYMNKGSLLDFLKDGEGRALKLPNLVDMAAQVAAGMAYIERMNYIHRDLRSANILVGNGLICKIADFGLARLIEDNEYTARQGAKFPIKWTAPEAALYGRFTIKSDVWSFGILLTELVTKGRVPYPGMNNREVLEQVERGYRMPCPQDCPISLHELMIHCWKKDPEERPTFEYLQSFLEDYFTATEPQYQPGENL

Compound	inhibition at 5 µM [1] [%]	inhibition at 5 µM [2] [%]	inhibition at 5 µM [3] [%]	inhibition at 5 µM [4] [%]	inhibition at 5 µM [5] [%]	inhibition at 5 µM [6] [%]	inhibition at 5 µM [7] [%]	inhibition at 5 µM [8] [%]	inhibition at 5 µM [9] [%]	inhibition at 5 µM [10] [%]	inhibition at 5 µM [11] [%]	inhibition at 5 µM [12] [%]	kinase inhibition, EPH [13]
Cc1ccc(NC(=O)c2cc(S(C)(=O)=O)n(-c3ccc(F)cc3)n2)cc1Nc1ccc2ncn(C)c(=O)c2c1 [Ex4, 1-(4-fluorophenyl)-N-(4-methyl-3-((3-methyl-4-oxo-3,4-dihydroquinazolin-6-yl)amino)phenyl)-5-(methylsulfonyl)-1H-pyrazole-3-carboxamide]	80 to 89	≥ 95	< 79	90 to 94	< 79	< 79	< 79	< 79	≥ 95	< 79	< 79	< 79	D (D=79% and less)
Cc1ccc(NC(=O)c2cc([S+](C)[O-])n(-c3ccc(F)cc3)n2)cc1Nc1ccc2ncn(C)c(=O)c2c1 (centres unmarked) [Ex5, 1-(4-fluorophenyl)-N-(4-methyl-3-((3-methyl-4-oxo-3,4-dihydroquinazolin-6-yl)amino)phenyl)-5-(methylsulfinyl)-1H-pyrazole-3-carboxamide]	< 79	≥ 95	90 to 94	< 79	< 79	< 79	< 79	< 79	≥ 95	< 79	< 79	< 79	D (D=79% and less)
Cc1ccc(NC(=O)c2cc([S+](C)[O-])n(-c3ccc(F)cc3)n2)cc1C#Cc1cnc2cccnn12 (centres unmarked) [Ex6, 1-(4-fluorophenyl)-N-(3-(imidazo[1,2-b]pyridazin-3-ylethynyl)-4-methylphenyl)-5-(methylsulfinyl)-1H-pyrazole-3-carboxamide]	≥ 95	< 79	≥ 95	90 to 94	≥ 95	≥ 95	< 79	80 to 89	≥ 95	≥ 95	< 79	< 79	D (D=79% and less)
CNC(=O)c1cc(Oc2ccc(F)c(NC(=O)c3cc([S+](C)[O-])n(-c4ccc(F)cc4)n3)c2)ccn1 (centres unmarked) [Ex7, 4-(4-fluoro-3-(1-(4-fluorophenyl)-5-(methylsulfinyl)-1H-pyrazole-3-carboxamido)phenoxy)-N-methylpicolinamide]	< 79	< 79	< 79	< 79	< 79	< 79	< 79	< 79	≥ 95	< 79	< 79	< 79	D (D=79% and less)
CSc1cc(C(=O)Nc2cc(Oc3ccnc(C(=O)NC4CNC4)c3)ccc2F)nn1-c1ccc(F)cc1 [Ex8, N-(azetidin-3-yl)-4-(4-fluoro-3-(1-(4-fluorophenyl)-5-(methylthio)-1H-pyrazole-3-carboxamido)phenoxy)picolinamide]	< 79	< 79	< 79	< 79	< 79	< 79	< 79	< 79	≥ 95	< 79	80 to 89	< 79	D (D=79% and less)
Cc1ccc(NC(=O)c2cc(S(C)(=O)=O)n(-c3ccc(F)cc3)n2)cc1-c1cc(OCCO)nc(N2CCOCC2)c1 [Ex9, 1-(4-fluorophenyl)-N-(3-(2-(2-hydroxyethoxy)-6-morpholinopyridin-4-yl)-4-methylphenyl)-5-(methylsulfonyl)-1H-pyrazole-3-carboxamide]	< 79	≥ 95	< 79	< 79	< 79	< 79	< 79	< 79	≥ 95	< 79	< 79	≥ 95	D (D=79% and less)
Cc1ccc(NC(=O)c2cc([S+](C)[O-])n(-c3ccc(F)cc3)n2)cc1-c1cc(OCCO)nc(N2CCOCC2)c1 (centres unmarked) [Ex10, 1-(4-fluorophenyl)-N-(3-(2-(2-hydroxyethoxy)-6-morpholinopyridin-4-yl)-4-methylphenyl)-5-(methylsulfinyl)-1H-pyrazole-3-carboxamide]	< 79	≥ 95	< 79	< 79	< 79	< 79	< 79	< 79	≥ 95	< 79	< 79	90 to 94	D (D=79% and less)
Cc1ccc(NC(=O)c2cc([S+](C)[O-])n(-c3ccc(F)cc3)n2)cc1-c1cc(N2CCOCC2)c(=O)n(C)c1 (centres unmarked) [Ex11, 1-(4-fluorophenyl)-N-(4-methyl-3-(1-methyl-5-morpholino-6-oxo-1,6-dihydropyridin-3-yl)phenyl)-5-(methylsulfinyl)-1H-pyrazole-3-carboxamide]	< 79	≥ 95	< 79	< 79	< 79	< 79	< 79	< 79	≥ 95	< 79	< 79	< 79	D (D=79% and less)
